Experimental data published in paper PMC9127750, “Structure-based design of CDC42 effector interaction inhibitors for the treatment of cancer” (Cell reports, 2022).
“And” between values parts separate entries of the source, which are not always exact repeats. Identical values can stand only once.

Tested on: WM3248 melanoma cells, 486 antibodies
Assay: Reverse phase protein arrays (RPPA)
Type: cell-based, Human
Text: Pellets were snap frozen in liquid nitrogen and shipped to MD Anderson Cancer Center core RPPA facility for RPPA analysis (Table S5). Three biological replicates for each sample were generated.
Nomenclatures on the RPPA heatmaps: name_of_antibody.species_of_antibody.status_of_antibody. V - antibody validated; C - validation of antibody in progress; Q - antibody nonspecific; E – under evaluation; antibodies raised in M - mouse, G - goat, R - rabbit, or T - rat.

With CN(C)c1cccc(Nc2cc(-c3ccccc3)nc(C3CCNCC3)n2)c1 [ARN22089, N1,N1-dimethyl-N3-(6-phenyl-2-(piperidin-4-yl)pyrimidin-4-yl)benzene-1,3-diamine] the “RPPA DNMT1.R.V” value (20 uM, single samples) was 0.983 and 0.756 and 0.985, the “RPPA DRP1.R.V” value (20 uM, single samples) was 0.965 and the “RPPA DUSP6.R.C” value (20 uM, single samples) was 1.060 and 1.859 and 1.429. For the same compound, the “RPPA DYRK1B.R.C” value (20 uM, single samples) was 1.009 and 1.052 and 0.953, the “RPPA Dvl3.R.V” value (20 uM, single samples) was 0.950 and 1.123 and the “RPPA E2F1.R.V” value (20 uM, single samples) was 1.419 and 1.315 and 0.981. For the same compound, the “RPPA E.Cadherin.R.V” value (20 uM, single samples) was 0.828 and 1.005, the “RPPA EGFR.R.V” value (20 uM, single samples) was 1.031 and 1.102 and 1.106 and the “RPPA EGFR_pY1068.R.C” value (20 uM, single samples) was 0.990 and 0.986. The “RPPA EGFR_pY1173.R.V” value (20 uM, single samples) was 1.027 and 1.077 and 1.112, the “RPPA EMA.M.C” value (20 uM, single samples) was 0.905 and 0.939 and 0.944 and the “RPPA ENY2.M.C” value (20 uM, single samples) was 0.965 and 0.851 and 0.977. For the same compound, the “RPPA ER.a.R.V” value (20 uM, single samples) was 0.767 and 0.993 and 1.203, the “RPPA ERCC1.R.C” value (20 uM, single samples) was 1.137 and 1.100 and 0.957 and the “RPPA ERCC5.R.C” value (20 uM, single samples) was 1.157 and 0.901 and 0.984. For the same compound, the “RPPA ERRalpha.R.V” value (20 uM, single samples) was 0.962 and 1.097 and 0.968, the “RPPA EVI1.R.V” value (20 uM, single samples) was 1.169 and 1.023 and 0.918 and the “RPPA Elk1_pS383.R.C” value (20 uM, single samples) was 1.006 and 1.163 and 1.131. For the same compound, the “RPPA Enolase.1.R.V” value (20 uM, single samples) was 1.058 and 0.770 and 0.988, the “RPPA Enolase.2.R.V” value (20 uM, single samples) was 1.052 and 0.967 and 0.953 and the “RPPA EphA2.R.V” value (20 uM, single samples) was 0.650 and 0.867 and 0.932. For the same compound, the “RPPA EphA2_pY588.R.C” value (20 uM, single samples) was 1.102 and 1.013 and 0.933, the “RPPA Erk5.R.V” value (20 uM, single samples) was 0.870 and 0.876 and the “RPPA Ets.1.R.V” value (20 uM, single samples) was 1.428 and 0.989. For the same compound, the “RPPA FABP5.R.C” value (20 uM, single samples) was 1.054 and 0.987 and 1.035, the “RPPA FAK.R.C” value (20 uM, single samples) was 0.799 and 1.003 and 1.205 and the “RPPA FAK_pY397.R.V” value (20 uM, single samples) was 0.986 and 1.046 and 0.989. For the same compound, the “RPPA FANCD2.R.V” value (20 uM, single samples) was 0.998 and 0.872 and 0.901, the “RPPA FASN.R.V” value (20 uM, single samples) was 1.033 and 0.807 and 0.695 and the “RPPA FGF.basic.R.C” value (20 uM, single samples) was 0.959 and 0.928. The “RPPA FN14.R.C” value (20 uM, single samples) was 0.830 and 1.031 and 1.337, the “RPPA FOXM1.R.V” value (20 uM, single samples) was 1.401 and 0.852 and 0.917 and the “RPPA FOXO3.R.V” value (20 uM, single samples) was 1.030 and 0.990. For the same compound, the “RPPA FRS2.alpha_pY196.R.V” value (20 uM, single samples) was 0.974 and 1.050 and 1.002, the “RPPA FTO.R.V” value (20 uM, single samples) was 1.174 and 0.828 and 0.929 and the “RPPA Fibronectin.R.V” value (20 uM, single samples) was 0.643 and 1.194 and 1.130. For the same compound, the “RPPA FoxO3a_pS318_S321.R.C” value (20 uM, single samples) was 1.008 and 0.941, the “RPPA G6PD.R.V” value (20 uM, single samples) was 0.989 and 0.985 and 0.975 and the “RPPA GATA3.M.V” value (20 uM, single samples) was 1.212 and 0.968. The “RPPA GATA6.R.V” value (20 uM, single samples) was 1.033 and 0.956 and 0.952, the “RPPA GCLC.R.C” value (20 uM, single samples) was 0.868 and 1.160 and the “RPPA GCLM.R.V” value (20 uM, single samples) was 1.077 and 0.945 and 0.973. For the same compound, the “RPPA GCN5L2.R.V” value (20 uM, single samples) was 0.869 and 0.957, the “RPPA GGPS1.M.V” value (20 uM, single samples) was 1.005 and 0.891 and 0.957 and the “RPPA GRB2.R.V” value (20 uM, single samples) was 0.953 and 0.884 and 1.030. For the same compound, the “RPPA GRB7.R.V” value (20 uM, single samples) was 0.848 and 1.110 and 1.171, the “RPPA GSK.3B.R.C” value (20 uM, single samples) was 0.916 and 0.817 and 0.970 and the “RPPA GSK.3a.b.M.V” value (20 uM, single samples) was 1.009 and 0.884 and 0.977. The “RPPA GSK.3a.b_pS21_S9.R.V” value (20 uM, single samples) was 0.956 and 1.173 and 1.028, the “RPPA Gab2.R.V” value (20 uM, single samples) was 1.465 and 0.881 and 0.921 and the “RPPA Gli1.R.C” value (20 uM, single samples) was 0.959 and 0.928 and 0.972. The “RPPA Gli3.R.C” value (20 uM, single samples) was 1.201, the “RPPA Glucocorticoid.Receptor.R.V” value (20 uM, single samples) was 1.195 and 1.220 and 0.975 and the “RPPA Glutamate.D1.2.R.V” value (20 uM, single samples) was 1.284 and 0.987 and 1.014. For the same compound, the “RPPA Glutaminase.R.C” value (20 uM, single samples) was 1.004 and 0.974 and 1.096, the “RPPA Granzyme.B.R.V” value (20 uM, single samples) was 1.019 and 1.152 and 1.098 and the “RPPA Grp75.R.C” value (20 uM, single samples) was 1.682 and 0.883 and 0.952. For the same compound, the “RPPA Gys.R.V” value (20 uM, single samples) was 0.810 and 1.025 and 1.174, the “RPPA Gys_pS641.R.V” value (20 uM, single samples) was 0.658 and 0.955 and the “RPPA H2AX_pS140.M.C” value (20 uM, single samples) was 1.144 and 1.344 and 0.957. The “RPPA HER2.M.V” value (20 uM, single samples) was 1.022 and 0.960, the “RPPA HER2_pY1248.R.V” value (20 uM, single samples) was 1.010 and 1.097 and the “RPPA HER3.R.V” value (20 uM, single samples) was 1.052 and 0.876 and 0.821. The “RPPA HER3_pY1289.R.C” value (20 uM, single samples) was 1.023 and 0.933, the “RPPA HES1.R.V” value (20 uM, single samples) was 0.979 and 1.109 and 1.059 and the “RPPA Heregulin.R.V” value (20 uM, single samples) was 0.854 and 1.034 and 1.150. For the same compound, the “RPPA eEF2.R.C” value (20 uM, single samples) was 1.353 and 0.930 and 0.976, the “RPPA eEF2K.R.V” value (20 uM, single samples) was 1.420 and 1.250 and 1.117 and the “RPPA eIF4E.R.V” value (20 uM, single samples) was 0.957 and 1.295 and 1.239. For the same compound, the “RPPA eIF4E_pS209.R.V” value (20 uM, single samples) was 0.903 and 1.310, the “RPPA eIF4G.R.C” value (20 uM, single samples) was 1.450 and 0.906 and 0.991 and the “DNMT1.R.V Norm_5 Average” value (5, average, normalized to 0) was 1.028. The “DRP1.R.V Norm_5 Average” value (5, average, normalized to 0) was 1.024, the “DUSP4.R.V Norm_5 Average” value (5, average, normalized to 0) was 1.106 and the “DUSP6.R.C Norm_5 Average” value (5, average, normalized to 0) was 1.186. The “DYRK1B.R.C Norm_5 Average” value (5, average, normalized to 0) was 0.920, the “Dvl3.R.V Norm_5 Average” value (5, average, normalized to 0) was 0.989 and the “E2F1.R.V Norm_5 Average” value (5, average, normalized to 0) was 0.971. For the same compound, the “E.Cadherin.R.V Norm_5 Average” value (5, average, normalized to 0) was 0.851, the “EGFR.R.V Norm_5 Average” value (5, average, normalized to 0) was 1.030 and the “EGFR_pY1068.R.C Norm_5 Average” value (5, average, normalized to 0) was 0.934. The “EGFR_pY1173.R.V Norm_5 Average” value (5, average, normalized to 0) was 1.022.
